Reference: patent US11976062B2, “Benzisoxazole compound” (OSAKA UNIVERSITY, priority 2018, dated 2024)

Target: T1, TRPC6 channel (Homo sapiens, UniProt Q9Y210)
T1 construct: expressed in transfected cells; host or cells: HEK293
T1 sequence (Q9Y210 1-931): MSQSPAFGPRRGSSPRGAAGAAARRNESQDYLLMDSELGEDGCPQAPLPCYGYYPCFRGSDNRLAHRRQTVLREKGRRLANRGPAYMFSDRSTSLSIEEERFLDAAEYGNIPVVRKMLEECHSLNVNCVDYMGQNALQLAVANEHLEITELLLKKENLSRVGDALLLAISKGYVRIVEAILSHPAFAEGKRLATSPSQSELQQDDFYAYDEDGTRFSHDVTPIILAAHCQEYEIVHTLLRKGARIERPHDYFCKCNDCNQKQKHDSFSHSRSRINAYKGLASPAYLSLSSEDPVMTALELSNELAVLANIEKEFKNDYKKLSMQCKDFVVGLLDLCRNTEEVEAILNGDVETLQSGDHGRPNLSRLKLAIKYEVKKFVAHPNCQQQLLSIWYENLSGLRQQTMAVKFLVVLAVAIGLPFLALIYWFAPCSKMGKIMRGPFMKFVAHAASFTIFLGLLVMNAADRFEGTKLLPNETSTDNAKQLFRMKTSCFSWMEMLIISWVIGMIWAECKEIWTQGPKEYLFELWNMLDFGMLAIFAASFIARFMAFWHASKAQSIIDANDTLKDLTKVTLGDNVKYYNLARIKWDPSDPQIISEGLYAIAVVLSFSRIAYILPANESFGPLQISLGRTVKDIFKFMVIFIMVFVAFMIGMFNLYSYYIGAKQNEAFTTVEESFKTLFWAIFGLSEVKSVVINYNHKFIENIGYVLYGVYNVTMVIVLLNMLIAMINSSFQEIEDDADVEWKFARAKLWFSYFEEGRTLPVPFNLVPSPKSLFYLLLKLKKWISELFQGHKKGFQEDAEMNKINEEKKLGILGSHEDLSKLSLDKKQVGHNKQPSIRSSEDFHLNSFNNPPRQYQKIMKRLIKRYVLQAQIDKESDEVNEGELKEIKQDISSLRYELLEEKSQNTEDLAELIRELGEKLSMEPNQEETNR
Experiment: Electrophysiological evaluation (whole-cell patch) using HEK293 cells transiently expressing TRPC6 channel
Assay type: cell-based
Details: 30 μM for 30 seconds, carbachol 100 μM, holding potential −50 mV
Experimental: Evaluation was performed using TRPC6-expressing cells cultured in the same manner as in Test Example 1. The transfected cells were placed in a chamber set in a microscope, and TRPC6 current was measured with a patch glass electrode (5 to 10 MΩ) in whole-cell mode. The extracellular solution and intracellular solution used in this evaluation are listed below.
Extracellular Solution: 140 mM NaCl, 5 mM KCl, 1 mM CaCl2, 1.2 mM MgCl2, 10 mM Glucose, 10 mM HEPES (pH 7.4)
Intracellular Solution: 120 mM CsOH, 120 mM Aspartate, 20 mM CsCl, 2 mM MgCl2, 1.5 mM CaCl2, 5 mM EGTA, 10 mM Glucose, 10 mM HEPES, 2 mM ATP-Na, 0.1 mM GTP (pH 7.4)
The holding potential was fixed at −50 mV. TRPC current was evoked by adding carbachol (100 μM) to the cells. Evaluation was performed on the change in current caused by adding 30 μM of a test compound (compound 011) to the cells for 30 seconds after 20 seconds from the addition of carbachol.

For `O=C(O)c1cnc(N2CCN(c3noc4cccc(C(F)(F)F)c34)CC2)c(Cl)c1` [Compound 011, 5-chloro-6-(4-(4-(trifluoromethyl)benzo[d]isoxazol-3-yl)piperazin-1-yl) nicotinic acid], the “change in TRPC6 current evoked by carbachol” value was “significant decrease in the amount of current”.
